Reference: PubChem BioAssay AID504936 (NMMLSC, 2011)
Activity calls are given as the source filed them.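 How the source made its calls: active means cytostatic effect above 60% on a scale from DMSO controls to rapamycin controls, holding yeast in G1/G0 phase; inactive means the rest.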

Test system: S. cerevisiae BY4741 DNA content flow cytometry, cell cycle
Test: S. cerevisiae cell cycle DNA content profile – flow cytometry (AID 504936);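 further: yeast exposed to compound for three five or seven days before fixation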
Settings: at 10 µM; for G1/G0 population: stronger effect = higher value; for G2 population: measured here: G2 phase fraction, stronger effect = lower value; for apoptotic population: measured here: apoptotic fraction

| Structure (SMILES) | G1/G0 population | G2 population | apoptotic population |
| --- | --- | --- | --- |
| C=CCSc1ccc(-c2ccc([N+](=O)[O-])cc2)o1 | 65.8% (inactive) | 10.1% | 21.7% |
| C[C@@]12C(=O)OC(=O)[C@]1(C)C1CCC2O1 | 61.6% (inactive) | 9.56% | 24.9% |
| CC(=O)Nc1ccc2nc3ccccc3nc2c1 | 72.9% (inactive) | 11.9% | 12.6% |
| CSc1nnc(-c2ccc([N+](=O)[O-])cc2)o1 | 79.2% (inactive) | 10.8% | 8.39% |
| Cc1cc(C)c2[nH]c3nc(SCC(=O)O)nnc3c2c1 | 79.8% (inactive) | 10.9% | 7.85% |
| Cc1ccccc1NC(=O)c1cccc2nc3ccccc3nc12 | 72.9% (inactive) | 12.2% | 13.2% |
| CCN(CC)C(=O)c1ccc2nc3ccccc3nc2c1 | 78.8% (inactive) | 11.3% | 8.05% |
| COc1ccc2cc(C3CC(c4ccco4)=NN3S(=O)(=O)c3ccccc3)c(Cl)nc2c1 (stereo not given) | 79% (inactive) | 12.7% | 6.88% |
| Oc1cccc2nc3ccccc3nc12 | 43% (inactive) | 9.27% | 44% |
| O=C(c1cccc2nc3ccccc3nc12)N1CCOCC1 | 76.5% (inactive) | 12.1% | 9.75% |
| CCN(CC)C(=O)CSc1nnc(-c2cccc(OC)c2)o1 | 70.5% (inactive) | 12.1% | 15.5% |
| O=c1[nH]c(O)c(C=Nc2ccc(F)c(Cl)c2)c(=O)[nH]1 | 78.7% (inactive) | 12.7% | 7.01% |
| O=C1c2c(O)ccc(O)c2C(=O)c2c(NCCNCCO)ccc(NCCNCCO)c21 | 0.072% (inactive) | 0% | 99.9% |
| COc1ccc2nc3ccccc3nc2c1 | 65.9% (inactive) | 12.7% | 18.8% |
| COc1ccc2nc3ccccc3nc2c1N | 56.9% (inactive) | 10.2% | 29.3% |
| Cn1c(=O)[nH]c2nncnc2c1=O | 73.1% (inactive) | 12% | 12.7% |
| c1ccc2nc3ccccc3nc2c1 | 71.8% (inactive) | 13.2% | 12.3% |
| O=C(OCc1c(F)cccc1Cl)c1cnc2ccccc2n1 | 73.8% (inactive) | 13.8% | 10.5% |
| CC(C)(C)Nc1ncnc2c1cnn2-c1ccccc1 | 62.9% (inactive) | 10.3% | 25% |
| COc1cccc2nc3cc(C)c(C)cc3nc12 | 64.8% (inactive) | 11% | 21.7% |
| Cc1ccc(-c2nn(C(C)(C)C)c3ncnc(N)c23)cc1 | 70.3% (inactive) | 9.27% | 16.3% |
| Cn1c(O)c(C(=Nc2ccc(F)cc2)c2ccccc2Cl)c(=O)n(C)c1=O | 72% (inactive) | 14.8% | 11.1% |
| CC(C)(C)n1nc(-c2ccc(Cl)cc2)c2c(N)ncnc21 | 70.8% (inactive) | 0.23% | 12.6% |
| O=C(Nc1ccc2nc3ccccc3nc2c1)c1ccc(Br)cc1 | 77.7% (inactive) | 12.5% | 8.37% |
| CCN(CC)C(=O)c1cccc2nc3ccccc3nc12 | 42.7% (inactive) | 8.88% | 46.6% |
| CC(C)OC(=O)CSc1nnc(-c2ccc(Cl)cc2Cl)o1 | 79.6% (inactive) | 12.9% | 6.08% |
| O=C(Nc1cccc(Cl)c1)Nc1ccc2nccnc2c1 | 77.4% (inactive) | 12% | 8.93% |
| FC(F)(F)c1nc2cc3nc4ccccc4[nH]c3cc2n1 | 71.5% (inactive) | 10.6% | 12.3% |

| Structure (SMILES) | G1/G0 population | G2 population | apoptotic population |
| --- | --- | --- | --- |
| CCCCCNC(=O)C(=O)C1C(=O)Nc2ccccc21 (stereo not given) | 71.4% (inactive) | 6.62% | 20% |
| CC(C)OC(=O)c1ccc2nc3ccccc3nc2c1 | 78.1% (inactive) | 12.4% | 7.62% |
| C[n+]1c2ccccc2nc2ccc(NCCO)cc21 | 77.6% (inactive) | 7.26% | 8.98% |
| CCn1c2ccccc2c2n[nH]c(=S)nc21 | 80% (inactive) | 11.1% | 6.8% |
| CN(C)CCNc1ncnc2c1cnn2-c1ccc(Cl)cc1 | 52.4% (inactive) | 10.3% | 35.5% |
| COc1ccc2c(c1)c1nnc(SC)nc1n2C | 58.9% (inactive) | 11.7% | 27.7% |
| CNc1ccc2nc3ccccc3[n+](C)c2c1 | 52.8% (inactive) | 8.35% | 36.6% |
| N#CCc1nn(-c2ccccc2)c2ncnc(N)c12 | 78.8% (inactive) | 10.6% | 8.22% |
| N#CC(c1nc2ccccc2nc1N1CCCC1)S(=O)(=O)c1ccccc1 (stereo not given) | 75.8% (inactive) | 11.9% | 9.82% |
| c1ccc2[nH]c3cc4ncnc4cc3nc2c1 | 58.6% (inactive) | 8.26% | 30.4% |
| [O-][n+]1c2ccccc2[n+]([O-])c2cc(O)ccc21 | 48.4% (inactive) | 8.17% | 37.1% |
| O=C(/C=C/c1ccccc1)NC(=S)NNC(=O)Cc1cccs1 | 80.1% | 3.91% | 12.7% |
| O=C(CN1CCN(c2ccccn2)CC1)Nc1ccccc1F | 74% (inactive) | 12.1% | 12% |
| Nc1cc2nc3ccccc3nc2cc1N | 79% (inactive) | 9.84% | 9% |
| OCC[n+]1c2ccccc2nc2ccc(N3CCOCC3)cc21 | 74.9% (inactive) | 12.4% | 11% |
| CC(C)CSc1nnc2c3ccccc3n(C)c2n1 | 75% (inactive) | 12% | 11.2% |
| CCc1nc(NC(C)(C)C)c2cnn(-c3ccccc3)c2n1 | 75.3% (inactive) | 13.1% | 9.99% |
| O=C(/C=C/c1cccs1)NC(=S)NNC(=O)Cc1cccs1 | 73% (inactive) | 11.1% | 14% |
| C=CCOn1c(=O)c(-c2cccs2)[n+]([O-])c2ccccc21 | 73.2% (inactive) | 13.9% | 11.3% |
| Cc1cc2nc3ccc(N(C)C)cc3nc2cc1N | 67.3% (inactive) | 5.62% | 20.3% |
| CC(C)(C)n1nc(-c2ccc(F)cc2)c2c(N)ncnc21 | 70.5% (inactive) | 3.33% | 14.9% |
| O=C(O)c1cnc2ccccc2n1 | 78.8% (inactive) | 12.5% | 7.02% |
| COc1ccc2nc3ccccc3nc2c1NC(=O)c1ccccc1Cl | 79.9% (inactive) | 12.2% | 6.11% |
| Cc1cc(C)cc(NC(=O)CN2CCN(c3ccccn3)CC2)c1 | 73.5% (inactive) | 12.4% | 12.2% |
| C#CCSc1ccc(-c2ccc([N+](=O)[O-])cc2)o1 | 79.6% (inactive) | 11% | 8.02% |
| CCC(=Nc1ccccc1O)C1=C(O)CC(c2ccccc2)CC1=O (stereo not given) | 74.7% (inactive) | 12.1% | 12% |
| COc1ccc2nc3ccccc3[n+]([O-])c2c1 | 69.4% (inactive) | 13.5% | 15% |
